{"source": "paper PMC12455390", "about": "“Three Is Better than One: A Multimetal Complex that Triggers Immunogenic Cell Death” (Angewandte Chemie (International Ed. in English), 2025)", "key": {"[1]": {"system": "CT26 challenge model", "test": "In vivo CT26 vaccination/challenge model", "parameters": "species or system BALB/c mice", "conditions": "mice vaccinated with CT26 cells pretreated 24 h at IC50, challenged after 7 days", "method": "Induction of an immunogenic response in vivo was determined using the established preclinical CT26 challenge model depicted in Figure 8a.^[ [33] ^] […] After 7 days, the mice were challenged with 5 x 10^5 naive CT26 cells injected into the left flank (challenge flank). Mice were monitored thereafter to assess the level, if any, of tumor development on the challenge (left) side. Monitoring was continued for 28 days. […] These are animals in which ICD induction was not expected. Tumor free survival was seen up to day 14 and up to day 21 in the doxorubicin and 1 + Oxa + 2 groups, respectively.\nAfter 7 days, mice were inoculated s.c. with 5 x 10^5 naive CT26 cancer cells into the contralateral flank. Prior to all injections, the supernatant of one flask per harvest day was tested for mycoplasma contamination (MycoAlert™, Lonza, Rockland, ME), which yielded negative results on all days. Body weights and tumor measurements were checked daily, and tumor development was compared among groups."}, "[2]": {"system": "white blood cells", "test": "Total and differential WBC manual count in challenge study", "format": "in vivo, BALB/c mice", "conditions": "mice injected with pretreated CT26 cells", "from_the_text": "To test this proposition, whole blood samples were collected from mice before vaccination (day ‐7), before challenge (day 0), and 7 days after challenge (day 7) as outlined in Figure 8a. The samples were subjected to a manual count of total white blood cell (WBC) using Tuerk staining and differential leukocytes (monocytes, lymphocytes, neutrophils, eosinophils, and basophils) using Wright staining (see Supporting Information). The results are summarized in Figure 8c as total WBC per µL (Figure 8c), differential percentages of monocytes (Figure 8d), and lymphocytes (Figure 8e) corresponding to an innate and adaptive immune response, respectively. The neutrophil, eosinophil, and basophil levels remained unchanged. […]\nBlood samples were collected from all mice groups by tail vein and were analyzed for total WBC count and differential count.^9 Blood was draw on Day -7 (before vaccination), Day 0 (before rechallenge) and Day 7. Total WBC was analyzed by adding 2 µL of blood to 38 µL Tuerk solution (Sigma-Aldrich product - 93770) and was counted using a hemocytometer after 45 min under a 10x light microscope. […] 200 WBC cells were counted and classified under 1000x magnification using a Leica DMI6000b microscope."}, "[3]": {"system": "CT26 colorectal cancer model", "conditions": "CT26 tumors in BALB/c mice, i.p. on days 8, 10, 12 & 14, day 16, doxorubicin 2 mg/kg, mixture 5.7 + 4 + 12 mg/kg, complex 5 21 mg/kg", "method": "The experimental protocol consisted of inoculating mice with 1.5 x 10^6 CT26 cells on day 0. When the tumors became palpable, a series of four intraperitoneal (i.p.) injections were carried out on days 8, 10, 12, & 14. On day 16 mice (n = 5) were euthanized and organs including tumors (Figure S37) were collected and analyzed for their metal content via ICP‐MS (Figure 6a). The doxorubicin dosage was based on a previous report.^[ [32] ^]\nProcedures were conducted in accordance with the Guide for the Care and Use of Laboratory Animals (U.S. Public Health Service, National Institute of Health) and the protocol for this experiment was approved by the Institutional Animal Care and Use Committee (IACUC, protocol numbers AUP-2022-00101 & AUP-2024-00337) at The University of Texas at Austin. Briefly, 6-8 weeks female BALB/c mice were acclimatized for 7 days thereafter, murine colon carcinoma cells, CT26 (1.5 x 10^6 cells in 100 μL of sterile PBS) were subcutaneously injected to the right flank. The experiments were initiated once tumors became palpable on Day 8. […] The animals were monitored for the development of pain or distress symptoms with the body weight and tumor size also being closely monitored. […] On day 16, mice were euthanized, and tumor and organs (liver, kidney, spleen, heart and lungs) were collected for ICP-MS metal quantification."}}, "note": "Read-outs that look alike come from different tables or passages of the source.", "data": [{"smiles": "COc1cccc2c1C(=O)c1c(O)c3c(c(O)c1C2=O)C[C@@](O)(C(=O)CO)C[C@@H]3O[C@H]1C[C@H](N)[C@H](O)[C@H](C)O1", "note": "[Doxorubicin, doxorubicin, reference compound]", "values": [{"measurement": "tumor free survival up to day", "setting": "[1]", "result": "≤ 14", "unit": "days"}, {"measurement": "total WBC count", "setting": "[2]; day 0, trends retained through day 7", "result": "significant reduction in total WBC count"}, {"measurement": "differential monocyte and lymphocyte percentages", "setting": "[2]; days 0 and 7", "result": "transient increase in lymphocyte percentages"}, {"measurement": "Inhibition of Tumor Growth", "setting": "[3]", "result": 40.8, "unit": "%"}, {"measurement": "Inhibition of Tumor Growth", "setting": "[3]; listed as doxorubicin", "result": "~40", "unit": "%"}]}]}
